Experimental data published in US20240368135A1 (VERTEX PHARMACEUTICALS INCORPORATED, priority 2021, published 2024).

Each compound was assayed against human NaV 1.8 (Homo sapiens, UniProt Q9Y5Y9) (assay: E-VIPR assay detecting and measuring NaV inhibition properties). Conditions: HEK cells expressing truncated human NaV 1.8; in the presence of human serum (compound numbers followed by *); read-out: IC50 in the E-VIPR Assay, performed in the presence of human serum.
Chain of human NaV 1.8 (Q9Y5Y9 126-399 limits assumed): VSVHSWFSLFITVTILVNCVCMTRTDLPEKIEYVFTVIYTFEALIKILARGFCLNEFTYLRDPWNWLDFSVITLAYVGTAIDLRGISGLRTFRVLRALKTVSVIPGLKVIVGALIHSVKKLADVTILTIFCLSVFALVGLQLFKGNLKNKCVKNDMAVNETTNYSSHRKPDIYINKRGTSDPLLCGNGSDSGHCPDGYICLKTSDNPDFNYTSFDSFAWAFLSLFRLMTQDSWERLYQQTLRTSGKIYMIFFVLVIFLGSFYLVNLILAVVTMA
Chain of human NaV 1.8 (Q9Y5Y9 660-890 limits assumed): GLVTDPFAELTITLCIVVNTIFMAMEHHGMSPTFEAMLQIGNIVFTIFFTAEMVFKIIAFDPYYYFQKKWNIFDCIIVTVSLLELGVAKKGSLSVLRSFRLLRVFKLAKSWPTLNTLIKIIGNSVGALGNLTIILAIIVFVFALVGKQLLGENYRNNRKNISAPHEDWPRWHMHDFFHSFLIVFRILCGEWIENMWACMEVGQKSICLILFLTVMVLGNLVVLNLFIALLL
Chain of human NaV 1.8 (Q9Y5Y9 1148-1722 limits assumed): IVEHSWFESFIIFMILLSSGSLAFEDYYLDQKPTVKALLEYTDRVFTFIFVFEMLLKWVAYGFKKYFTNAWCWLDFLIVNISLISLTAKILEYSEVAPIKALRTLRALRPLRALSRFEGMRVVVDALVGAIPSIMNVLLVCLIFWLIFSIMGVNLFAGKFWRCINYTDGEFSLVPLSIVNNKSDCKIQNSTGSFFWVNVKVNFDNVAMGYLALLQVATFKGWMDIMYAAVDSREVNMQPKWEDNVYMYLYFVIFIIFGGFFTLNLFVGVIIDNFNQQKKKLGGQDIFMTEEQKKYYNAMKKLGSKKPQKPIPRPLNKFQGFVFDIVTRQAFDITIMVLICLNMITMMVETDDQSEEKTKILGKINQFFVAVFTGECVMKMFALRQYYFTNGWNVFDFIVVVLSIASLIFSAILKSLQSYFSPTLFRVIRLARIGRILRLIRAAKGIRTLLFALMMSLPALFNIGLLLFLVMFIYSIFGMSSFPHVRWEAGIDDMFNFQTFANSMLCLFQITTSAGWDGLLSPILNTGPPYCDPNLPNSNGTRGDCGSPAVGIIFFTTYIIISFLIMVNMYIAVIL
Format: cell-based
Procedure, shortened: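 Membrane potential was followed by coumarin/oxonol FRET during electrical field stimulation of matrigel-seeded HEK cells carrying truncated human NaV1.8 plus KIR2.1. Dosing used 11 points, 3-fold steps, top 300 nM final, 0.625% DMSO, with or without 25% human serum.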
With `COc1c(C2CC(C)(C(F)(F)F)OC2C(=O)Nc2ccnc(C(O)C(C)O)c2)ccc(F)c1F` (single isomer, unassigned) [Compound 695] the IC50 was at least 1000 nM.
Compound `COc1c([C@@H]2C[C@](C)(C(F)(F)F)O[C@H]2C(=O)Nc2ccnc([C@@H](O)[C@H](C)O)c2)ccc(F)c1F` (relative stereo) [Compound 700, rel-(2R,3S,5R)-3-(3,4-difluoro-2-methoxyphenyl)-N-(2-((1R,2S)-1,2-dihydroxypropyl)pyridin-4-yl)-5-methyl-5-(trifluoromethyl)tetrahydrofuran-2-carboxamide] has an IC50 of 10 to 100 nM.

Same assay, conditions: HEK cells expressing truncated human NaV 1.8; no human serum; read-out: IC50 in the E-VIPR Assay
`Cc1ccc(NC(=O)C2OC(C)(C(F)(F)F)C(C)C2c2ccc(F)c(F)c2OC2CC(O)C2)cn1` [Compound 661, (2R,3S,4S,5R)-3-(3,4-difluoro-2-((1S,3R)-3-hydroxycyclobutoxy)phenyl)-4,5-dimethyl-N-(6-methylpyridin-3-yl)-5-(trifluoromethyl)tetrahydrofuran-2-carboxamide] gave an IC50 of 10 to 100 nM.
`COc1c([C@H]2[C@H](C(=O)Nc3ccnc(C[C@H]4COCCN4)c3)O[C@@](C)(C(F)(F)F)[C@H]2C)ccc(F)c1F` [Compound 214, (2R,3S,4S,5R)-3-(3,4-difluoro-2-methoxyphenyl)-4,5-dimethyl-N-(2-(((S)-morpholin-3-yl)methyl)pyridin-4-yl)-5-(trifluoromethyl)tetrahydrofuran-2-carboxamide] was tested, and the IC50 was 10 to 100 nM.
Compound `COc1c(C2C(C(=O)Nc3ccnc(S(C)(=N)=O)c3)OC(C)(C(F)(F)F)C2C)ccc(F)c1F` (single isomer, unassigned) [Compound 55, 3-(3,4-difluoro-2-methoxy-phenyl)-4,5-dimethyl-N-[2-(methylsulfonimidoyl)-4-pyridyl]-5-(trifluoromethyl)tetrahydrofuran-2-carboxamide] has an IC50 of under 10 nM.
`COc1c([C@H]2[C@H](C(=O)Nc3ccnc(C4COCCN4)c3)O[C@@](C)(C(F)(F)F)[C@H]2C)ccc(F)c1F` (single isomer, unassigned) [Compound 342, rel-(2R*,3S*,4S*,5R*)-3-(3,4-difluoro-2-methoxyphenyl)-4,5-dimethyl-N-(2-(morpholin-3-yl)pyridin-4-yl)-5-(trifluoromethyl)-tetrahydrofuran-2-carboxamide] showed an IC50 of 10 to 100 nM.
`COc1c([C@H]2[C@H](C(=O)Nc3cc(C(O)CO)ncc3C)O[C@@](C)(C(F)(F)F)[C@H]2C)ccc(F)c1F` (single isomer, unassigned) [Compound 205, rel-(2R*,3S*,4S*,5R*)-3-(3,4-difluoro-2-methoxyphenyl)-N-(2-(1,2-dihydroxyethyl)-5-methylpyridin-4-yl)-4,5-dimethyl-5-(trifluoromethyl)tetrahydrofuran-2-carboxamide] showed an IC50 of under 10 nM.
Work on `COc1c(C2C(C(=O)Nc3cccc(P(C)(C)=O)c3)OC(C)(C(F)(F)F)C2C)ccc(F)c1F` (single isomer, unassigned) [Compound 42, 3-(3,4-difluoro-2-methoxy-phenyl)-N-(3-dimethylphosphorylphenyl)-4,5-dimethyl-5-(trifluoromethyl)tetrahydrofuran-2-carboxamide] yielded an IC50 of under 10 nM.
`Cc1nn(C(F)F)cc1NC(=O)[C@@H]1O[C@@](C)(C(F)(F)F)[C@@H](C)[C@H]1c1ccc(F)c(F)c1CN1CC(O)C1` (racemic) [Compound 673, rac-(2R,3S,4S,5R)-3-(3,4-difluoro-2-((3-hydroxyazetidin-1-yl)methyl)phenyl)-N-(1-(difluoromethyl)-3-methyl-1H-pyrazol-4-yl)-4,5-dimethyl-5-(trifluoromethyl)tetrahydrofuran-2-carboxamide] showed an IC50 of 100 to 1000 nM.
`COc1c(C2C(C(=O)Nc3ccn4nnnc4c3)OC(C)(C(F)(F)F)C2C)ccc(F)c1C` (single isomer, unassigned) [Compound 134, 3-(4-fluoro-2-methoxy-3-methyl-phenyl)-4,5-dimethyl-N-(tetrazolo[1,5-a]pyridin-7-yl)-5-(trifluoromethyl)tetrahydrofuran-2-carboxamide] showed an IC50 of under 10 nM.
Work on `COc1c([C@H]2[C@H](C(=O)Nc3cc(C4(N)CCOC4)ncc3F)O[C@@](C)(C(F)(F)F)[C@H]2C)ccc(F)c1F` (single isomer, unassigned) [Compound 349, rel-(2R*,3S*,4S*,5R*)-N-(2-(3-aminotetrahydrofuran-3-yl)-5-fluoropyridin-4-yl)-3-(3,4-difluoro-2-methoxyphenyl)-4,5-dimethyl-5-(trifluoromethyl)-tetrahydrofuran-2-carboxamide] yielded an IC50 of under 10 nM.
Work on `CNC(=O)CN(C)c1cc(NC(=O)[C@@H]2O[C@@](C)(C(F)(F)F)[C@@H](C)[C@H]2c2ccc(F)c(F)c2OC)ccn1` [Compound 487, (2R,3S,4S,5R)-3-(3,4-difluoro-2-methoxyphenyl)-4,5-dimethyl-N-(2-(methyl(2-(methylamino)-2-oxoethyl)amino)pyridin-4-yl)-5-(trifluoromethyl)tetrahydrofuran-2-carboxamide] yielded an IC50 of under 10 nM.
